Consider 20 compounds from patent US8148056B2, “Methods of identifying modulators of GPR81 receptors” (Janssen Pharmaceutica NV, priority 2006, dated 2012).

Several values for one entry are separate records, joined by “and”; a condition that tells them apart may be missing. Equal values may be shown once. Entries after “also recorded” stand apart in the source; their conditions may differ. Where a name gives a salt, the structure may show the parent alone. Read-outs that look alike come from different tables or passages of the source.

The target in assay [1] is T1, GPR81 (Homo sapiens, UniProt Q9BXC0). The assay is described as follows: GPR81 agonist ligand activity, GTPγS binding assay (species of receptor not given). The class given is biochemical. More on the design: expressed in transfected cells; host or cells: GPR81-expressing cells / membranes (CHO). The note with it: for GPR81 agonist activity: yes/no; for stimulation of 35S-GTPγS binding in GPR81-expressing cells / cell membranes: concentration not given.
Target sequence in this assay (Q9BXC0 whole entry, species assumed): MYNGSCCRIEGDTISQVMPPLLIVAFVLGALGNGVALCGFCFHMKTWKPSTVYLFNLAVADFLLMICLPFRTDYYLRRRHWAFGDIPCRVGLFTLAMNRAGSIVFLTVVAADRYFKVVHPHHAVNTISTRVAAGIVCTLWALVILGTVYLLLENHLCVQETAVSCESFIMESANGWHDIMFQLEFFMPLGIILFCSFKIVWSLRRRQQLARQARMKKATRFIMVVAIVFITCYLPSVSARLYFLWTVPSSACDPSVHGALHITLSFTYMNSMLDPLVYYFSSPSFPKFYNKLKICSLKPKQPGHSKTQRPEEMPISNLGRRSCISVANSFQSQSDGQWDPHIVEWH

Another assay addresses T2, HM74A (Homo sapiens, UniProt Q8TDS4).
T2 construct: expressed in transfected cells; host or cells: CHO cells, membranes
Description: 35S-GTPγS binding assay, HM74A-expressing CHO membranes. The class given is biochemical.

Assay [2] deals with T3, HM74 (Homo sapiens, UniProt P49019).
T3 construct: expressed in transfected cells; host or cells: CHO cells, membranes
T3 sequence (P49019 whole entry): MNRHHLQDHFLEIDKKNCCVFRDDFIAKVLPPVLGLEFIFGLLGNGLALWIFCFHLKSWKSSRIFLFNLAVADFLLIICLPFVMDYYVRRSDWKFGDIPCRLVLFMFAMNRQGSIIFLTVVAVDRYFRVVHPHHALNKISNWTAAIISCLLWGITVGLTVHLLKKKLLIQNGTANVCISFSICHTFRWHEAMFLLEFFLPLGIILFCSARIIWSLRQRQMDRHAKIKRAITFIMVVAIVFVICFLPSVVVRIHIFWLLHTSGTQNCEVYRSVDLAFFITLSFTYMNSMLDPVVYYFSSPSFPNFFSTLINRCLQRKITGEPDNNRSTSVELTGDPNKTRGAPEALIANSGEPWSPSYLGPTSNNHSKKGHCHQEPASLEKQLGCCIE
Description: 35S-GTPγS binding assay, HM74-expressing CHO membranes. It counts as biochemical.

Assay [3] in a line: 35S-GTPγS binding assay, control membranes. It counts as biochemical, Chinese hamster. To be noted: negative control.
In assay [4] the target is T1, GPR81. To be noted: 5 μM forskolin. The source says: A β-galactosidase (β-gal) assay system was also used to characterize the GPR81 activation in SK-N-MC/CRE-β-gal cells stably expressing human GPR81. GPCRs that couple with Gi proteins, upon activation by agonist, inhibit cAMP accumulation, and therefore inhibit forkolin-stimulated β-gal expression. A cell line stably expressing human GPR81 was established from an SK-N-MC/CRE-β-gal cell line, which harbors a β-galactosidase β-gal) gene under the control of a cAMP-responsive element (CRE). SK-N-MC/CRE-β-gal cells were transfected with the above-described human GPR81-pCIneo construct using LipofectAmine as the transfection reagent. Two days after transfection, the cells were split into new culture dishes at different densities and grown under selection of G418 for three weeks. Single isolated clones were isolated and tested for responsiveness to L-lactate stimulation. […] The β-gal activity was assayed as described (Liu et al., Mol. Pharmacol., Vol. 67, pp. 231-240 (2005)).
Target sequence in this assay (Q9BXC0 whole entry): as the sequence (Q9BXC0 whole entry, species assumed) above

Assay [5] deals with HM74. The assay is described as follows: cAMP inhibition-linked β-gal assay, HM74 expressing cells. The class given is cell-based.
Assay [6] is described as follows: cAMP inhibition-linked β-gal assay, control cells. It counts as cell-based.
Assay [7] has as its target T1, GPR81. Description: 35S-GTPγS binding assay, membranes of CHO cells expressing human GPR81. The class given is biochemical. More on the design: expressed in transfected cells; host or cells: CHO-K1 (transient, pCIneo), membranes.
Target sequence in this assay (Q9BXC0 whole entry): as the sequence (Q9BXC0 whole entry, species assumed) above
For assay [8], the target named is T1, GPR81. To be noted: Tunaru et al., Nat. Med. 2003; cited from earlier work.
Target sequence in this assay (Q9BXC0 whole entry, species assumed): as above
Another assay has as its system rat GPR81L. Description: GTPγS binding assay, rat GPR81L. The class given is biochemical. To be noted: FIG. 19. The source says:
(§1) The longer polypeptide sequence was termed rat GP[…]; the shorter polypeptide sequence was termed rat GP[…]. […] The forward primer, 5' [NT] ID NO:7), and the reverse primer, [NT] […] The forward primer, [NT] ID NO:9), and reverse primer, [NT]

The next assay deals with rat GPR81S. Description: GTPγS binding assay, rat GPR81S. The class given is biochemical. To be noted: FIG. 19.
Excerpt: as §1

In a further assay the target is T4, mouse GPR81L (Mus musculus, UniProt Q8C131).
T4 construct: expressed in transfected cells; host or cells: CHO-K1 (transient, pCIneo), membranes
T4 sequence (Q8C131 with tags, fused parts or gaps): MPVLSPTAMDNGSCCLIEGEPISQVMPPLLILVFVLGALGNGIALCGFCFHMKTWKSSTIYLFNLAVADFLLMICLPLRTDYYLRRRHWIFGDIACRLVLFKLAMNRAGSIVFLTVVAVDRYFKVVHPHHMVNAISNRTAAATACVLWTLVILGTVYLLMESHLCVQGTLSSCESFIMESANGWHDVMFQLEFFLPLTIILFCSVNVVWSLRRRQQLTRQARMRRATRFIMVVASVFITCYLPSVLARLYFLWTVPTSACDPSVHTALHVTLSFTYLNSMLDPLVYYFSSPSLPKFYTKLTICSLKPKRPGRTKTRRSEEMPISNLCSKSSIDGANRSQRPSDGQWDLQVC
Description: GTPγS binding assay, mouse GPR81L. It counts as biochemical. To be noted: FIG. 19. The source says: (§2) The longer polypeptide sequence was termed mouse GP[…]; the shorter polypeptide sequence was termed mouse GP[…].

In another assay the target is T5, mouse GPR81S (Mus musculus, UniProt Q8C131).
T5 construct: expressed in transfected cells; host or cells: CHO-K1 (transient, pCIneo), membranes
T5 sequence (Q8C131 1-343): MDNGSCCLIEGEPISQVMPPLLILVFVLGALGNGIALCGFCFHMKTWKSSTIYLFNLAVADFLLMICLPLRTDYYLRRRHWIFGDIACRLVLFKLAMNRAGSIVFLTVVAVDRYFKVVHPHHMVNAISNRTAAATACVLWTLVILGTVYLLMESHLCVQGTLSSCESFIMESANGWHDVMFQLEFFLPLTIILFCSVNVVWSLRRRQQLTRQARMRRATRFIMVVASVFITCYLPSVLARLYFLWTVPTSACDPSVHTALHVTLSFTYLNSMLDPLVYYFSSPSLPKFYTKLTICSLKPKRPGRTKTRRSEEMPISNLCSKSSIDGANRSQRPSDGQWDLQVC
The assay is described as follows: GTPγS binding assay, mouse GPR81S. It counts as biochemical. The note with it: FIG. 19.
Excerpt: as §2

In the next assay the test system is bovine GPR81. Description: GTPγS binding assay, bovine GPR81. The note with it: FIG. 20. The class given is biochemical. The source says: TAA GTC ACC AAT CC 3′ (SEQ ID NO:12), were designed based on the identified bovine GPR81 coding sequence and were used to amplify the bovine GPR81 coding region using bovine genomic DNA as template.
For a further assay, the system named is dog GPR81. Description: GTPγS binding assay, dog GPR81. It counts as biochemical. To be noted: FIG. 20.
The test system of the next assay is monkey GPR81. Description: GTPγS binding assay, monkey GPR81. The class given is biochemical. The note with it: FIG. 20. The source says:
The forward primer, 5′ ACTAGAGAATTCGCCACCATGTACAACGGGTCGTGCTGCCGCAT 3′ (SEQ ID NO:15), and the reverse primer, 5′ ATGATAGCGGCCGCTCAGTGCCACTCAACAGTGTGGGGATC 3′ (SEQ ID NO:16), were designed based on the identified monkey GPR81 coding sequence and were used to amplify the monkey GPR81 coding region using monkey genomic DNA as template.

The next assay has as its system porcine GPR81. Description: GTPγS binding assay, porcine GPR81. It counts as biochemical. The note with it: FIG. 20.

T2 sequence (Q8TDS4 whole entry): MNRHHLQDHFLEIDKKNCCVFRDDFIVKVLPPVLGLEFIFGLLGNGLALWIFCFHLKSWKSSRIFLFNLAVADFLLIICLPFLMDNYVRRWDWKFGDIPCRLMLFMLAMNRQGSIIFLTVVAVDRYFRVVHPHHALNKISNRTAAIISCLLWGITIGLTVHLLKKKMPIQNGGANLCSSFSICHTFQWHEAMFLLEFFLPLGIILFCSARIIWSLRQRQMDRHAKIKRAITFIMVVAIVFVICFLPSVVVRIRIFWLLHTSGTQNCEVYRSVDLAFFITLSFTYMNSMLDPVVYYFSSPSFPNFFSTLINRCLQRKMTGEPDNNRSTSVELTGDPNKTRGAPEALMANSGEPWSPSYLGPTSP

For the compound `CC(Cl)(Cl)C(=O)[O-].[Na+]` [2,2-dichloropropionic acid, sodium salt], on GPR81 [1], the GPR81 agonist activity result is “no”.
On the same count and under the same terms, then `CC(Cl)C(=O)Cl` (centres unmarked) [2-chloropropinoyl chloride], with “showed GPR81-agonist activity and yes”.
Consider `CC(Cl)C(=O)[O-].[Na+]` (centres unmarked) [2-chloropropionic acid, sodium salt], for which the GPR81 agonist activity result on GPR81 [1] (listed as 2-chloropropinoate, sodium salt) was “showed GPR81-agonist activity”; on GPR81 [1] (sodium salt), “yes”.
`C[C@@H](O)C(=O)O` [D-lactate]: at GPR81 [1], the “efficacy as GPR81 agonist (comparison)” value is listed as “less efficacious”; the GPR81 agonist activity entry was “demonstrated significant GPR81 agonist activity and yes”.
Turning to `N[C@@H](CCO)C(=O)O` [L-homoserine], at GPR81 [1], the GPR81 agonist activity entry was “none of glucose, L-homoserine, or any L-amino acids tested activated GPR81 and no”.
As to `C[C@H](O)C(=O)O` [L-lactate], the “activation of HM74A-expressing membranes (35S-GTPγS binding)” value at HM74A is “did not activate”. For the same compound, at HM74 [2], the “activation of HM74-expressing membranes (35S-GTPγS binding)” value is reported as “did not activate”. Moreover, the “35S-GTPγS binding stimulation in control cells/membranes not expressing GPR81 or any GPCR” value in assay [3] is “did not activate”. For the same compound, the “inhibition of forskolin-induced β-gal expression in GPR81-expressing cells” value at GPR81 [4] is on record as “inhibits forskolin-induced β-galactosidase expression”. In addition, the EC50 on GPR81 [4] (read-out: EC50, inhibition of forskolin-induced β-gal expression in GPR81-expressing cells) is roughly 3 mM; at GPR81 [7] (CHO membranes, read-out: EC50, activation of human GPR81 (35S-GTPγS binding)), ~5 mM and 5 mM. The “inhibition of forskolin-induced β-gal expression in HM74 expressing cells” value in the assay on HM74 [5] was “did not inhibit”. For the same compound, the “inhibition of forskolin-induced β-gal expression in control cells not expressing a GPCR” value is reported as “did not inhibit” in assay [6] and “not in cells not expressing GPR81” in [6] (listed as lactate). The “receptor activation of GPR81” value on GPR81 [7] (at 1 mM concentration) is listed as “capable of stimulating detectable receptor activation”.
Consider `CC(=O)O` [acetate], for which the GPR81 agonist activity entry at GPR81 [1] was “neither acetate, pyruvate, formiate, nor glyoxylate activated GPR81 and no”.
For the compound `O=C(O)C(F)(F)Cl` [chlorodifluoroacetate (CDFA), chlorodifluoroacetate], the GPR81 agonist activity result was “yes” at GPR81 [1] and “showed GPR81-agonist activity” on GPR81 [1] (listed as chlorodifluoroacetate).
In the case of `O=C(O)C(F)F` [difluoroacetate], at GPR81 [1], the GPR81 agonist activity entry is recorded as “showed GPR81-agonist activity”.
The same measure, in the same setting: as for `O=CO` [formiate], the entry is “neither acetate, pyruvate, formiate, nor glyoxylate activated GPR81 and no”.
As to `O=C([O-])CO.[Na+]` [glycolic acid, sodium salt], the GPR81 agonist activity result was “demonstrated significant GPR81 agonist activity” at GPR81 [1] (listed as glycolate, sodium salt) and “yes” at GPR81 [1] (sodium salt).
With `O=CC(=O)O` [glyoxylate], the GPR81 agonist activity result at GPR81 [1] was “neither acetate, pyruvate, formiate, nor glyoxylate activated GPR81 and no”.
As to `O=C(O)c1cccnc1` [nicotinic acid], on GPR81 [4], the “inhibition of forskolin-induced β-gal expression in GPR81-expressing cells” value was “failed to inhibit; also recorded: not in cells expressing GPR81”. In addition, the “inhibition of forskolin-induced β-gal expression in HM74 expressing cells” value in the assay with HM74 [5] is on record as “inhibited forskolin-induced β-gal expression”. Also, the “inhibition of forskolin-induced β-gal expression in control cells not expressing a GPCR” value in [6] was “failed to inhibit”. For the same compound, the “activation of GPR81” value at GPR81 [8] is reported as “does not activate”.
Take `CC(C)(O)C(=O)[O-].[Na+]` [sodium hydroxyisobutyrate]: the GPR81 agonist activity entry at GPR81 [1] is on record as “yes”; on GPR81 [1] (listed as hydroxy-iso-butyrate), “demonstrated significant GPR81 agonist activity”.
For `O=C(O)C(Br)(Br)Br` [tribromoacetate (TEA), tribromoacetate], the GPR81 agonist activity result on GPR81 [1] is reported as “no”.
For the compound `O=C(O)C(F)(F)F` [trifluoroacetate (TFA), trifluoroacetate], the GPR81 agonist activity result is “yes” at GPR81 [1] and “showed GPR81-agonist activity” at GPR81 [1] (listed as trifluoroacetate).
For the compound `CCC(O)C(=O)O` (stereo not drawn) [α-hydroxybutyrate], at GPR81 [1], the GPR81 agonist activity entry was “yes”.
Regarding `CC(O)CC(=O)O` (stereo not drawn) [β-hydroxybutyrate], the “activation of rat GPR81L” value in the assay on rat GPR81L is listed as “did not activate”. Further, the “activation of rat GPR81S” value with rat GPR81S is “did not activate”. For the same compound, the “activation of mouse GPR81L” value at mouse GPR81L is given as “did not activate”. For the same compound, the “activation of mouse GPR81S” value on mouse GPR81S is recorded as “did not activate”. Also, in the assay on bovine GPR81, the “activation of bovine GPR81” value is recorded as “did not activate”. Also, the “activation of dog GPR81” value with dog GPR81 is given as “did not activate”. Besides, in the assay with monkey GPR81, the “activation of monkey GPR81” value is “did not activate”. Further, the “activation of porcine GPR81” value in the assay with porcine GPR81 is listed as “did not activate”. Further, the “activation of human GPR81 (GTPγS binding)” value at GPR81 [7] was “did not activate”. Moreover, on GPR81 [1], the GPR81 agonist activity result is “no”.
For the compound `NCCCC(=O)O` [γ-aminobutyric acid (GABA), γ-aminobutyric acid], at GPR81 [1], the “stimulation of 35S-GTPγS binding in GPR81-expressing cells / cell membranes” value is “did not stimulate” and the GPR81 agonist activity result is “no”. Moreover, the GPR81 agonist activity entry on GPR81 [1] (listed as gamma-aminobutyric acid (GABA)) was “did not activate it”.
As to `O=C(O)CCCO` [γ-hydroxybutyric acid (GHB), γ-hydroxybutyric acid], the “35S-GTPγS binding stimulation in control cells/membranes not expressing GPR81 or any GPCR” value in assay [3] is “not in the control cells; also recorded: not in cells not expressing GPR81”. In addition, the “stimulation of 35S-GTPγS binding in GPR81-expressing cells” value on GPR81 [1] (at 1 mM and 5 mM) was “significantly stimulated”. For the same compound, at GPR81 [1], the “stimulation of 35S-GTPγS binding in GPR81-expressing cells / cell membranes” value is on record as “stimulates” and the GPR81 agonist activity result is given as “yes”. On GPR81 [1] (listed as GHB), the GPR81 agonist activity entry is on record as “activated GPR81”.
